# Measured values reported in patent publication US20080312187A1, “PHOSPHOINOSITIDE MODULATION FOR THE TREATMENT OF ALZHEIMER'S DISEASE” (priority 2005, published 2008).
# Entries after “also recorded” stand apart in the source; their conditions may differ. Like-named read-outs stand apart in the source and are kept apart here.
# Tests used:
# β-secretase (sAPPβ) = assay: Secreted APP ectodomain generated by β-secretase (sAPPβ) in conditioned media of HeLa APPsw cells; format: cell-based, human; details: HeLa cells stably expressing APPsw
# Protocol: (§1) FIG. 3A-F. PIP2 levels modulate Aβ biogenesis via two mechanisms. PIP2 levels modulate the release of soluble APP ectodomain into the medium. HeLa cells stably expressing APPsw were treated with either PLC inhibitors (EDEL, MILT) or PLC activator (M3M). Conditioned cell media were analyzed for secreted APP ectodomains generated by α-(sAPPα) (A) and β-secretase (sAPPβ) (B) cleavage. Aβ42 (D) and total Aβ biogenesis (C) in HEK293 cells transiently transfected with C99, C-terminal stub of APP that serves as a direct γ-secretase substrate, in the presence of PIP2 level modulator, EDEL. Aβ42 (F) and total Aβ biogenesis (E) in HEK293 cells transiently transfected with C99, C-terminal stub of APP that serves as a direct γ-secretase substrate, in the presence of PIP2 level modulator, M3M.
# (§2) PIP2 levels modulate Aβ biogenesis via two distinct mechanisms. The metabolites of PIP2, including IP3 and DAG, have been implicated in APP processing pathways (69, 70, 71). Under normal conditions, PIP2 hydrolysis (to generate IP3 and DAG) favors the generation of α-secretase-generated secreted APP ectodomain (sAPPα). […] To more clearly define the role of PIP2 in modulating γ-secretase activity (e.g. Aβ42), we next expressed an APP-C99 construct, an ectopic γ-secretase substrate which resembles β-secretase-generated, membrane-associated APP stub in heterologous cells.
# α-secretase (sAPPα) = assay: Secreted APP ectodomain generated by α-secretase (sAPPα) in conditioned media of HeLa APPsw cells; format: cell-based, human; details: HeLa cells stably expressing APPsw
# Protocol: as §1, §2
# PIP2 = assay: Steady-state PIP2 levels determined by HPLC in HeLa cells overexpressing APPsw; format: cell-based; details: HeLa cells stably overexpressing Swedish variant of human APP
# From the text: (§3) FIG. 2A-E. Changes in PIP2 levels correlate with Aβ42 biogenesis. PIP2 levels (A) and Aβ42 biogenesis (D) in HeLa cells overexpressing human APPsw treated with either PLC inhibitor edelfosine (EDEL) or its active analog miltefosine (MILT). PIP2 levels (B) and Aβ42 biogenesis (E) in HeLa cells overexpressing human APPsw treated with PLC activator m-3m3FBS (M3M). (C) Modulation of PIP2 levels correlates with Aβ42 biogenesis. HeLa cells stably overexpressing the Swedish variant of human APP were treated with either control (DMSO), PLC inhibitor edelfosine (EDEL) or its active analog miltefosine (MILT). Steady-state PIP2 levels were determined by HPLC.
# Aβ42 [1] = assay: Aβ42 biogenesis in HeLa cells overexpressing APPsw; format: cell-based; details: HeLa cells stably overexpressing Swedish variant of human APP
# From the text: as §3
# Aβ42 [2] = assay: Aβ42 versus Aβ40 production in cell lines treated with ginsenosides; format: cell-based; details: cell lines and primary neurons
# From the text: (§4) Of note, γ-secretase inhibitors and non-steroidal anti-inflammatory drugs were not found to reverse these CCE defects (FIG. 17A-B). Ginsenosides such as (20S)Rg3 may therefore, unlike other Aβ42-lowering agents, also ameliorate the defect in CCE associated with Aβ. The following data support the role of PLCγ1 as a common upstream target modulating CCE as well as Aβ42 levels.
# Aβ42 [3] = assay: Aβ42 in cultured hippocampal primary neurons from Tg2576 mice; format: cell-based, mouse; details: for Aβ42 in cultured hippocampal primary neurons: primary neurons from Tg2576 mice
# From the text: FIG. 15A-B. (A) Rk1 and (20S)Rg3 decrease Aβ42 in cultured hippocampal primary neurons from Ad-model Tg2576 mice.
# as §4
# full-length APP (FL-APP) = assay: Steady-state full-length APP by Western blot in treated HeLa APPsw cells; format: cell-based, human; details: Western blot analysis
# Protocol: Full length APP and total Aβ biogenesis are not affected in treated cells. Modulation of PIP2 levels correlates with Aβ42 biogenesis. HeLa cells stably overexpressing the Swedish variant of human APP were treated with either control (DMSO), PLC inhibitor edelfosine (EDEL) or its active analog miltefosine (MILT). Steady-state PIP2 levels were determined by HPLC.
# [4] = system: presenilin/γ-secretase (Aβ42); assay: Aβ42 biogenesis in HEK293 cells transiently transfected with C99 (direct γ-secretase substrate); format: cell-based
# Protocol: as §1, §2
# hippocampal slices = assay: Long-term potentiation (fEPSP slope) in hippocampal slices treated with Aβ42
# From the text: FIG. 5. […] The field excitatory post synaptic potential slope (FEPSP slope) in hippocampal slices that were untreated or treated with Aβ42 (Aβ) or Aβ42 and 20(S)Rg3 was monitored over time.
# PIP2 modulation rescues Aβ oligomer-induced synaptic dysfunction.
# Aβ42 [5] = assay: Aβ42 ELISA in Hela-APPsw cells transfected with siRNA against PLC isoforms and treated with Rg3; format: cell-based, human
# Protocol: FIG. 18A-B. Role of PLC γ1 in Aβ42-lowering activity of ginsenosides. (A) Hela-APPsw cells transfected with specific siRNA against PLCβ3, PLC γ1 and PLC γ2 were treated with either DMSO or 15 μM Rg3 for 6 hr. The down regulation of PLCβ3, PLCγ1 and PLCγ2 was confirmed by Western blot using isoform-specific antibodies. (B) Effects of RNAi-mediated downregulation of PLC isoforms in the presence of Rg3 treatment. Aβ42 levels were measured in the conditioned media by ELISA. Aβ values are shown as percentage of control siRNA and are the mean ±s.d. from three independent experiments (*P<0.001, **P<0.01 using ANOVA followed by Dunnett's test). (77,78)
# Hela cells stably expressing Swedish FAD mutant APP (Hela-APPsw cells) were treated with small interfering RNA (siRNA) selective against various PLCβ(β1-4) and PLCγ (γ1, 2) isoforms.
# Tg2576 mice = assay: Aβ42/Aβ40 ratio in brains of Tg2576 mice; format: in vivo, mouse; details: Tg2576 transgenic mice
structure (smiles),measurement,setting,value
CCCCCCCCCCCCCCCCOP(=O)([O-])OCC[N+](C)(C)C [miltefosine],sAPPβ secretion,β-secretase (sAPPβ),reduction in sAPPβ secretion
same,sAPPα generation,α-secretase (sAPPα),increases in sAPPα generation
"CCCCCCCCCCCCCCCCCCOCC(COP(=O)([O-])OCC[N+](C)(C)C)OC (stereo not shown) [edelfosine, Edelfosine]",increase in the steady-state levels of PIP2,PIP2; vs control (DMSO),~10%
same,decrease in the levels of Aβ42,Aβ42 [1]; vs control (DMSO),37.3%
C=C(CCC=C(C)C)[C@H]1CC[C@]2(C)[C@@H]1[C@H](O)C[C@@H]1[C@@]3(C)CC[C@H](O[C@@H]4O[C@H](CO)[C@@H](O)[C@H](O)[C@H]4O[C@@H]4O[C@H](CO)[C@@H](O)[C@H](O)[C@H]4O)C(C)(C)[C@@H]3CC[C@]12C [Rk1],Aβ37 and Aβ38,Aβ42 [2],concomitant increase
same,Aβ42 production relative to Aβ40,Aβ42 [2],preferentially lower the production of Aβ42; also recorded: selectively decreases Aβ42 relative to Aβ40
same,Aβ42 in cultured hippocampal primary neurons,Aβ42 [3],decrease Aβ42
Cc1cc(C)c(S(=O)(=O)Nc2cccc(C(F)(F)F)c2)c(C)c1 [m-3m3FBS],sAPPβ secretion,β-secretase (sAPPβ),dramatic increase
same,decrease in the steady state levels of PIP2,PIP2,~11%
same,effect on steady-state levels of full-length APP (FL-APP),full-length APP (FL-APP),No significant effects
same,increase in Aβ42,Aβ42 [1],37.2%
same,sAPPα generation,α-secretase (sAPPα),decreases in sAPPα
same,effect on Aβ42 in C99-transfected cells,[4],Aβ42-promoting activity
CC(C)=CCC[C@](C)(O)[C@H]1CC[C@]2(C)[C@@H]1[C@H](O)C[C@@H]1[C@@]3(C)CC[C@H](O[C@@H]4O[C@H](CO)[C@@H](O)[C@H](O)[C@H]4O[C@@H]4O[C@H](CO)[C@@H](O)[C@H](O)[C@H]4O)C(C)(C)[C@@H]3CC[C@]12C [(20S)Rg3],long-term potentiation (fEPSP slope) in the presence of Aβ42,hippocampal slices,blocks Abeta oligomer-induced inhibition of long-term potentitation
same,long-term potentiation (fEPSP slope) in the presence of Aβ42,hippocampal slices; listed as 20(S)Rg3,increases LTP expression relative to untreated hippocampal slices
same,long-term potentiation (fEPSP slope) in the presence of Aβ42,hippocampal slices; listed as SMT-3,blocks Aβ42 oligomer-induced synaptic dysfunction
same,Aβ37 and Aβ38,Aβ42 [2],concomitant increase
same,Aβ42 production relative to Aβ40,Aβ42 [2],preferentially lower the production of Aβ42; also recorded: also selectively decreases Aβ42 relative to Aβ40
same,Aβ42-lowering effect with PLCβ3 expression inhibited by siRNA,"Aβ42 [5]; 15 μM Rg3 for 6 hr, PLCβ3 siRNA",nearly abolished
same,Aβ42-lowering effect with PLCγ1 expression inhibited by siRNA,"Aβ42 [5]; 15 μM Rg3 for 6 hr, PLCγ1 siRNA",nearly abolished
same,reduction of Aβ42 generation when PLCγ1 levels are suppressed (dose-response experiments),Aβ42 [5]; PLCγ1 suppressed,far less effective
same,Aβ42/Aβ40 ratio in the brains,Tg2576 mice,decreases the ratio of Aβ42 to Aβ40
same,Aβ42/Aβ40 ratio in the brains,Tg2576 mice; listed as Rg3,decreased Aβ42/Aβ40 ratio
same,Aβ42/Aβ40 ratio in cultured neurons,Aβ42 [3]; cultured neurons,decreased Aβ42/Aβ40 ratio
same,Aβ42 in cultured hippocampal primary neurons,Aβ42 [3],decrease Aβ42
